Measurements taken from ChEMBL document CHEMBL5252642, “Design and synthesis of naturally-inspired SARS-CoV-2 inhibitors” (RSC Med Chem, 2023).
Calls of active or inactive are those of the source. No cut-off for these calls is given here.

How the values were obtained:
[1] = Selectivity index, ratio of CC50 for human A549-ACE2 cells to EC50 for antiviral activity against SARS-CoV-2 Omicron BA1 variant infected human A549-ACE2 cells; type: toxicity; details: read-out: Ratio CC50/EC50
[2] = system: Severe acute respiratory syndrome coronavirus 2; assay: Inhibition of SARS-CoV2 main protease C145A mutant by measuring luciferase signal at 0.02 to 125 uM by reverse-nanoluciferase reporter assay; details: dose 0.02-125 µM
SARS-CoV-2 = assay: Antiviral activity against SARS-CoV-2 Omicron BA1 variant infected human A549-ACE2 cells assessed as inhibition of viral replication; type: functional, organism-based; details: Severe acute respiratory syndrome coronavirus 2, Omicron BA1, A549-ACE2

Work on `Cc1ccc(S(=O)(=O)N2C[C@@]34CN(C)C[C@@H](O3)[C@H]3[C@@H](Oc5ncccn5)CC[C@]2(C(C)C)[C@H]34)cc1` yielded a selectivity ratio [1] of 0.8.
In the case of `Cc1ccc(S(=O)(=O)N2C[C@@]34CN(Cc5ccccc5)C[C@@H](O3)[C@H]3C(=O)CC[C@]2(C(C)C)[C@H]34)cc1`, the selectivity ratio [1] is reported as 0.7.
With `CC(C)C[C@H](NC(=O)OCc1ccccc1)C(=O)N[C@@H](C[C@@H]1CCNC1=O)C(O)S(=O)(=O)O` (stereo partly drawn) the inhibition [2] was “inactive”.
In the case of `COc1ccc(CCN2C[C@H]3O[C@]4(C2)CN(S(=O)(=O)c2ccc(C)cc2)[C@]2(C(C)C)C=C[C@H](O)[C@H]3[C@H]42)cc1`, the selectivity ratio [1] is reported as 3.3, the inhibition [2] is reported as “inactive” and the EC50 (SARS-CoV-2) is reported as 3.5 µM.
`Cc1ccc(S(=O)(=O)N2C[C@@]34CN(Cc5ccccc5)C[C@@H](O3)[C@H]3C(=O)C=C[C@]2(C(C)C)[C@H]34)cc1` showed a selectivity ratio [1] of 0.9.
`COc1cc(CN2C[C@H]3O[C@]4(C2)CN(S(=O)(=O)c2ccc(C)cc2)[C@]2(C(C)C)CC[C@H](OCCCN(C)C)[C@H]3[C@H]42)cc(OC)c1` gave a selectivity ratio [1] of 5.7 and an EC50 (SARS-CoV-2) of 4.4 µM.
`Cc1ccc(S(=O)(=O)N2C[C@@]34CN(Cc5ccccc5)C[C@@H](O3)[C@H]3[C@@H](Oc5ncccn5)CC[C@]2(C(C)C)[C@H]34)cc1` showed a selectivity ratio [1] of 1.
In the case of `COc1cc(CN2C[C@H]3O[C@]4(C2)CN(S(=O)(=O)c2ccc(C)cc2)[C@]2(C(C)C)CC[C@H](O)[C@H]3[C@H]42)cc(OC)c1`, the selectivity ratio [1] is reported as 2.3.
In the case of `Cc1ccc(S(=O)(=O)N2C[C@@]34CN(CCc5c[nH]c6ccccc56)C[C@@H](O3)[C@@H]3[C@H]4[C@@]2(C(C)C)CC[C@@H]3O)cc1`, the selectivity ratio [1] is reported as 1.6.
`Cc1ccc(S(=O)(=O)N2C[C@@]34CN(Cc5nc6ccccc6s5)C[C@@H](O3)[C@H]3C(=O)CC[C@]2(C(C)C)[C@H]34)cc1` gave a selectivity ratio [1] of 6.9.
`Cc1ccc(S(=O)(=O)N2C[C@@]34CN(C(=O)c5cccs5)C[C@@H](O3)[C@@H]3[C@H]4[C@@]2(C(C)C)CC[C@@H]3O)cc1` showed a selectivity ratio [1] of over 3.
In the case of `Cc1ccc(S(=O)(=O)N2C[C@@]34CN(Cc5nc6ccccc6s5)C[C@@H](O3)[C@@H]3[C@H]4[C@@]2(C(C)C)CC[C@@H]3O)cc1`, the selectivity ratio [1] is reported as 1.6.
In the case of `Cc1ccc(S(=O)(=O)N2C[C@@]34CN(C(=O)c5ccc(F)cc5N)C[C@@H](O3)[C@@H]3[C@H]4[C@@]2(C(C)C)CC[C@@H]3O)cc1`, the selectivity ratio [1] is reported as 1.4.
`Cc1ccc(S(=O)(=O)N2C[C@@]34CN(Cc5ccccc5)C[C@@H](O3)[C@@H]3[C@H]4[C@@]2(C(C)C)C=C[C@@H]3O)cc1` showed a selectivity ratio [1] of over 3.
Compound `COc1ccc(CCN2C[C@H]3O[C@]4(C2)CN(S(=O)(=O)c2ccc(C)cc2)[C@]2(C(C)C)C=CC(=O)[C@H]3[C@H]42)cc1` has a selectivity ratio [1] of 0.5.
